Tested on: NHDF cells
Assay: Experiment 2: collagen sedimented over cell surface and released in supernatant of NHDF cells, α,α-trehalose or maltose with AA-2G
Format: cell-based, human
Conditions: relative to AA-2G = 100
Protocol: Influence of α,α-trehalose and maltose on collagen production using NHDF cells was examined by the following experiment: Test solutions were prepared by dissolving either AA-2G; hydrous crystalline α,α-trehalose, a reagent grade specimen, commercialized by Hayashibara Biochemical Laboratories Inc., Okayama, Japan; or hydrous crystalline maltose, a reagent grade specimen, commercialized by Hayashibara Biochemical Laboratories Inc., Okayama; Japan, in […] The methods for culturing NHDF cells and quantifying the collagen-production level of the cells were conducted similarly as in Experiment 1. The collagen level in each culture supernatant of NHDF cells was determined in such a manner of collecting the culture supernatant and quantifying the collagen released in the supernatant by using “Sircol Collagen Quantification Kit”. As a control, D-MEM medium containing 50 μM AA-2G was used. These control and test solutions were respectively experimented using three wells, followed by calculating a mean value for collagen-production levels in the wells. The results are in Table 2 where the values are expressed with relative values for either or both of the levels of collagen, that had sedimented over the cell surfaces or released in the supernatants, in terms of their collagen-production levels of NHDF cells, which had been cultured in D-MEM medium containing 50 μM AA-2G, being regarded as 100.

[1] = saccharide 0.2 mg/ml + 50 μM AA-2G
[2] = saccharide 0.6 mg/ml + 50 μM AA-2G
[3] = saccharide 1.7 mg/ml + 50 μM AA-2G
[4] = saccharide 5.0 mg/ml + 50 μM AA-2G
[5] = saccharide 15.0 mg/ml + 50 μM AA-2G

OC[C@H]1O[C@H](O[C@H]2O[C@H](CO)[C@@H](O)[C@H](O)[C@H]2O)[C@H](O)[C@@H](O)[C@@H]1O [α,α-trehalose]
Collagen-production level, In supernatant [1]: 103
Collagen-production level, Total [1]: 101
Collagen-production level, In supernatant [2]: 203
Collagen-production level, Total [2]: 131
Collagen-production level, In supernatant [3]: 250
Collagen-production level, Total [3]: 154
Collagen-production level, In supernatant [4]: 232
Collagen-production level, Total [4]: 169
Collagen-production level, In supernatant [5]: 1058
Collagen-production level, Total [5]: 335
